Measured values taken from PMC5974041, “Functional Studies of Sex Pheromone Receptors in Asian Corn Borer Ostrinia furnacalis” (Frontiers in Physiology, 2018).

How the values were obtained:
Assay in all cases: two-electrode voltage clamp, Xenopus oocytes
Assay type in all cases: cell-based
Conditions in all cases: pH 7.6 Ringer's buffer, -80 mV, co-expressed OfurOrco, agonist
OfurOR7 = target: T1, OfurOR7 (Ostrinia furnacalis, UniProt M4NKX7)
T1 construct: gene OR7; full-length ORF from male antennal cDNA, untagged, in PT7TS; cRNA co-injected 1:1 with OfurOrco in Xenopus oocytes; naming of Yang et al. 2015; with Odorant receptor co-receptor (Orco)
T1 sequence (M4NKX7 1-428): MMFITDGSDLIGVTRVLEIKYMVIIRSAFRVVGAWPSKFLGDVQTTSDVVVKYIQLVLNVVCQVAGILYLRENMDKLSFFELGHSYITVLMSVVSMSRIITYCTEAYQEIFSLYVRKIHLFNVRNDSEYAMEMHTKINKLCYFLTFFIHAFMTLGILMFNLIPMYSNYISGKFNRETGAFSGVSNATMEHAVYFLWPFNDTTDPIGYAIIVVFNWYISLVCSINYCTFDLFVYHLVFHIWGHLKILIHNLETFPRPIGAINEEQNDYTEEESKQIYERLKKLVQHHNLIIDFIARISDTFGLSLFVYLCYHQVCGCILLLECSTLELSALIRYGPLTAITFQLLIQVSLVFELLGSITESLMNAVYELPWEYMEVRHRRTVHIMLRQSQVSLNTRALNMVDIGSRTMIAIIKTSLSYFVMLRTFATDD
T1 sequence (A0A0E4B591 1-474 partner): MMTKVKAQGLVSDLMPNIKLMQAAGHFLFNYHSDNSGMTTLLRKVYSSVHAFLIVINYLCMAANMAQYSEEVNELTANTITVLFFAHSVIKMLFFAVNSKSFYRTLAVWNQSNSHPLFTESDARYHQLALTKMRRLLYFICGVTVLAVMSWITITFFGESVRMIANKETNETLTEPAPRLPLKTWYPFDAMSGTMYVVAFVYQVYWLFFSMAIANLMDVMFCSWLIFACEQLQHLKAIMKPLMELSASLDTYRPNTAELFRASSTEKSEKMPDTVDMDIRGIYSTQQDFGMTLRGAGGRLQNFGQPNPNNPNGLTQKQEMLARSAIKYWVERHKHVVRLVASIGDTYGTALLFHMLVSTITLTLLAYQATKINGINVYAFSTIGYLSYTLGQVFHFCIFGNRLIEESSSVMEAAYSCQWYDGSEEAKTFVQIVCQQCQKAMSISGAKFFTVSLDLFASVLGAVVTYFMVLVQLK

OfurOR5b = target: T2, OfurOR5b (Ostrinia furnacalis, UniProt M4NPQ0)
T2 construct: gene OR5b; full-length ORF from male antennal cDNA, untagged, in PT7TS; cRNA co-injected 1:1 with OfurOrco in Xenopus oocytes; with Odorant receptor co-receptor (Orco)
T2 sequence (M4NPQ0 1-424): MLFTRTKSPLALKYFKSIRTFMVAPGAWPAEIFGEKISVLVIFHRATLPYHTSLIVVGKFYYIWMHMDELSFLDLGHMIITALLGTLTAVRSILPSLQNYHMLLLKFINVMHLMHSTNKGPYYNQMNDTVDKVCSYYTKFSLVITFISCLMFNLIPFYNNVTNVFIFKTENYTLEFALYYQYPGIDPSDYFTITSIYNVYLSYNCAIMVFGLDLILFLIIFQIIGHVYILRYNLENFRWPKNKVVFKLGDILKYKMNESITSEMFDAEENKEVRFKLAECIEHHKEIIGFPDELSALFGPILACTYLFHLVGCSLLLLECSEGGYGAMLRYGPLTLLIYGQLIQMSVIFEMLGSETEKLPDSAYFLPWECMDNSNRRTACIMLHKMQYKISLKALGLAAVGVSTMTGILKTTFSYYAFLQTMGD
T2 sequence (A0A0E4B591 1-474 partner): T1 sequence (A0A0E4B591 1-474 partner)

OfurOR4 = target: T3, OfurOR4 (Ostrinia furnacalis, UniProt A0A0E3VLP9)
T3 construct: gene OR4; full-length ORF from male antennal cDNA, untagged, in PT7TS; cRNA co-injected 1:1 with OfurOrco in Xenopus oocytes; naming of Yang et al. 2015 (group OR4 = OnubOR3 of Wanner/Leary); with Odorant receptor co-receptor (Orco)
T3 sequence (A0A0E3VLP9 1-422): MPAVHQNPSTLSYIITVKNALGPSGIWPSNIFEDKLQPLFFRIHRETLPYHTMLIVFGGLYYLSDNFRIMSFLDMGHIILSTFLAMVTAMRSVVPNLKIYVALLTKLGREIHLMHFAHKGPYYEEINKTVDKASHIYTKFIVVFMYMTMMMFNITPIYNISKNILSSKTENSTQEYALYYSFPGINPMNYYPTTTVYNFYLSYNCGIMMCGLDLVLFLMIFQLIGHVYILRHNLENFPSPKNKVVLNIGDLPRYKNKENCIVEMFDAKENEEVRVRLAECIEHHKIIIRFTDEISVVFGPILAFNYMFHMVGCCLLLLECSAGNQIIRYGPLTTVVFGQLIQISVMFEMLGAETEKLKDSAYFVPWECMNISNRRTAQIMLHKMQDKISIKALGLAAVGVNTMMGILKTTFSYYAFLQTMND
T3 sequence (A0A0E4B591 1-474 partner): T1 sequence (A0A0E4B591 1-474 partner)

OfurOR8 = target: T4, OfurOR8 (Ostrinia furnacalis, UniProt A0A0E4B5G7)
T4 construct: gene OR8; full-length ORF from male antennal cDNA, untagged, in PT7TS; cRNA co-injected 1:1 with OfurOrco in Xenopus oocytes; naming of Yang et al. 2015; with Odorant receptor co-receptor (Orco)
T4 sequence (A0A0E4B5G7 1-437): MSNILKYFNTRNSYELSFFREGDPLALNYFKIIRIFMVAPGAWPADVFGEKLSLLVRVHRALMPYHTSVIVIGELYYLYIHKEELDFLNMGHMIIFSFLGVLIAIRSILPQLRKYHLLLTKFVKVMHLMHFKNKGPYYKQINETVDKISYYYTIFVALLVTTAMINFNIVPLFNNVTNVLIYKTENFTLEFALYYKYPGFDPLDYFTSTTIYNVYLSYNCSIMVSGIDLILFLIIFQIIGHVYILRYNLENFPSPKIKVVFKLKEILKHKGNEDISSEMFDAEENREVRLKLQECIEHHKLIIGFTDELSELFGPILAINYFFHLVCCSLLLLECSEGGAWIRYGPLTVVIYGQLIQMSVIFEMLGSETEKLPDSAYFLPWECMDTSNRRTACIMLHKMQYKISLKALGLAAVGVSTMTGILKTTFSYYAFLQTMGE
T4 sequence (A0A0E4B591 1-474 partner): T1 sequence (A0A0E4B591 1-474 partner)

OfurOR6 = target: T5, OfurOR6 (Ostrinia furnacalis, UniProt M4NL06)
T5 construct: gene OR6; full-length ORF from male antennal cDNA, untagged, in PT7TS; cRNA co-injected 1:1 with OfurOrco in Xenopus oocytes; naming of Yang et al. 2015; with Odorant receptor co-receptor (Orco)
T5 sequence (M4NL06 1-421): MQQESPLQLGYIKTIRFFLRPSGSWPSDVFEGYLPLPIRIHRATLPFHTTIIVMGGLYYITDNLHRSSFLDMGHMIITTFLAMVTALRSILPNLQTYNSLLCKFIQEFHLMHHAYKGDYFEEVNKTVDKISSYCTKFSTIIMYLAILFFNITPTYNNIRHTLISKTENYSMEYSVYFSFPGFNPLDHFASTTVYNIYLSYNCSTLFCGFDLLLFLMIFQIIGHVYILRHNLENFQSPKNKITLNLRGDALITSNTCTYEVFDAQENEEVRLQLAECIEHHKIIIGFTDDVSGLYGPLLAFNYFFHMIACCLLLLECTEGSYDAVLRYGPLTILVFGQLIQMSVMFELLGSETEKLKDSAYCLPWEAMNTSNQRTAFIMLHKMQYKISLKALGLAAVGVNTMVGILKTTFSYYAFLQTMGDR
T5 sequence (A0A0E4B591 1-474 partner): T1 sequence (A0A0E4B591 1-474 partner)

Row | current at 100 μM (OfurOR7) | current at 100 μM (OfurOR8) | current at 100 μM (OfurOR6) | current at 100 μM (OfurOR4; standard order of application (response depends on order)) | SMILES | current at 100 μM (OfurOR5b) | current at 100 μM (OfurOR4)
1 | 212.2 ± 46.3 nA | 8.5 ± 5.2 nA |  |  | CCCC/C=C\CCCCCCCCOC(C)=O [Z9-14:OAc, (Z)-9-tetradecenyl acetate] | OfurOR5b broadly tuned to Z9-14:OAc, E11-14:OAc, Z11-14:OAc, E12-14:OAc, and Z12-14:OAc | inhibited the response of Z9-14:OAc, Z11-14:OAc, and E11-14:OAc
2 |  |  | 140.7 ± 6.0 nA | 727.9 ± 120.4 nA | C/C=C/CCCCCCCCCCCOC(C)=O [E12-14:OAc, E-12-tetradecenyl acetate] | OfurOR5b broadly tuned to Z9-14:OAc, E11-14:OAc, Z11-14:OAc, E12-14:OAc, and Z12-14:OAc | 
3 |  | 144.6 ± 28.3 nA |  |  | CC/C=C/CCCCCCCCCCOC(C)=O [E11-14:OAc, (E)-11-tetradecenyl acetate] | OfurOR5b broadly tuned to Z9-14:OAc, E11-14:OAc, Z11-14:OAc, E12-14:OAc, and Z12-14:OAc | inhibited the response of Z9-14:OAc, Z11-14:OAc, and E11-14:OAc
4 |  | 76.8 ± 14.1 nA |  |  | CC/C=C\CCCCCCCCCCOC(C)=O [Z11-14:OAc, (Z)-11-tetradecenyl acetate] | OfurOR5b broadly tuned to Z9-14:OAc, E11-14:OAc, Z11-14:OAc, E12-14:OAc, and Z12-14:OAc | inhibited the response of Z9-14:OAc, Z11-14:OAc, and E11-14:OAc
5 |  |  |  |  | C/C=C\CCCCCCCCCCCOC(C)=O [Z12-14:OAc, (Z)-12-tetradecenyl acetate] | OfurOR5b broadly tuned to Z9-14:OAc, E11-14:OAc, Z11-14:OAc, E12-14:OAc, and Z12-14:OAc | 1876.8 ± 165 nA
